The source of these data is PubChem BioAssay AID686936 (Broad Institute, 2013).

The test system of this experiment is LuxO (D47E) transcriptional regulator, Vibrio cholerae O395. Kind of experiment: PubChem AID 686936. Particulars: stronger effect = lower value.
Setting [1] is: PK/LDH coupled NADH A340, at 100 µM.
[2] abbreviates: PK/LDH coupled NADH A340, rate, at 1 µM.
The mark [3] stands for this setting: PK/LDH coupled NADH A340, rate, at 25 µM.

Take `Cc1ccc2cc3c(NC(=O)c4ccco4)nn(C)c3nc2c1`: the ATPase rate (delta OD340/min) reads like this: under setting [1], 0.00981; under setting [2], 0.0527; under setting [3], 0.0182.
Consider `O=C(Nc1nnc(-c2ccc3c(c2)OCCO3)o1)C1CCCCC1`, for which the ATPase rate (delta OD340/min) is, setting by setting: under setting [1], 0.0424; under setting [2], 0.0644; under setting [3], 0.0279.
